Source: paper PMC10023787, “Trio-pharmacophore DNA-encoded chemical library for simultaneous selection of fragments and linkers” (Nature Communications, 2023)
Entries after “also recorded” stand apart in the source; their conditions may differ. Like-named read-outs stand apart in the source and are kept apart here.

Experiments:
MMP-2 [1] = molecular target: T1, MMP-2 (Homo sapiens, UniProt P08253); test: De novo T-DEL selection against MMP-2, NGS decoding; format: binding; conditions: for MMP2 SL-C Enrichment Fold: enrichment fold of sub-library SL-C member; for MMP2 SL-C Enrichment Fold / MMP2 SL-C Count: MMP-2 selection, Figure 4a source data; for MMP2 SL-C Count: sequence count of sub-library SL-C member
T1 construct: purchased Sino Biological 10082-HNAH
T1 sequence (P08253 110-660): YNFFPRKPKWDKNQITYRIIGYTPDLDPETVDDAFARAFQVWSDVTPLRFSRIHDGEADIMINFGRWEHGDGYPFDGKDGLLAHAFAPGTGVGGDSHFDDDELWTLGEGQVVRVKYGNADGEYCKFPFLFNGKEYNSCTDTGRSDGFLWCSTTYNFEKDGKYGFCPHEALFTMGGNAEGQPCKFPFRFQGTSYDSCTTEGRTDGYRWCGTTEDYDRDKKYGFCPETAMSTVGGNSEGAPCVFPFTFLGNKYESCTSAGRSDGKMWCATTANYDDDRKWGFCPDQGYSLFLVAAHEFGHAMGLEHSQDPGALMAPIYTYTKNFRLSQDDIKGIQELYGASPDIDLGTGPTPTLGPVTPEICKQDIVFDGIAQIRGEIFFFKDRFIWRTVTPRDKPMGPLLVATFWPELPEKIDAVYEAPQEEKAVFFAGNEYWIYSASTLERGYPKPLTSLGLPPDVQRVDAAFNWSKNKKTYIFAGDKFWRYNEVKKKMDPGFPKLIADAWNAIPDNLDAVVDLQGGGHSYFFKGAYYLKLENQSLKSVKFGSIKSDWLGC
From the text: Matrix metalloproteinases (MMPs) are zinc-dependent endopeptidases capable of degrading and remodeling extracellular matrix components[46],[47]. They are attractive therapeutic targets as high expression levels were detected in various diseases, such as inflammatory diseases, and at different stages of cancers, including metastasis, invasion, and angiogenesis[47]–[53]. As shown in Supplementary Fig. 3c, we performed selections against the two gelatinases (human MMP-2 and human MMP-9) to identify binding fragments for later design and synthesis of small molecule inhibitors. After selection, the three sub-libraries were decoded, and the enrichment was calculated by dividing the post-selection fraction (count/total counts) by the pre-selection fraction (Fig. 4a and Supplementary Fig. 13).
4 µg of MMP-2/MMP-9 was dissolved in 100 µl of selection buffer containing 25 mM Tris-base, 10 mM CaCl2, 150 mM NaCl, 0.05% Tween 20, pH 7.5. 10 µl of 4-Aminophenylmercuric acetate (APMA) (100 mM) solution was added to the protein solution and incubated at 37 °C for 1 h. After activation, the solution was added on top of 40 µl pre-washed Ni-NTA resin and incubated for 30 min on a rotary shaker. The supernatant was discarded, and the resin was washed three times with the selection buffer.
For each independent selection, three sub-libraries were mixed in the selection buffer with a final concentration of 40 nM of each sub-library in 100 µl. The mixture was heat denatured at 90 °C for 1 min and slowly cooled down to allow the formation of the trio-pharmacophore library. The dynamic dual-pharmacophore DEL was provided by DyNAbind GmbH (Merck, DYNA001).
The assembled library was incubated with the protein-bound solid support for 2 h at RT on a rotary shaker. In parallel, selection on bare solid support served as the negative control to exclude promiscuous binders on the resin. After panning, the supernatant was discarded, and the resin was washed three times with 1 ml selection buffer. Finally, 100 µl of 50 mM Tris buffer, pH 7.4 was added to resuspend the resin and the resin was incubated at 95 °C for 5 min to denature the protein, release, and collect the bound library members.
The eluted library members were subjected to sample preparation for NGS. NGS preparation was achieved by two-step PCR. First, the individual selection was indexed using primers containing unique sequences corresponding to each selection. The amplified product was purified from 2% agarose gel. Second, the purified DNA from all selections were pooled in equal amount and subjected to the 2nd PCR step to attach sequences compatible with the NGS flow cell and the sequencing primers. NGS was performed by Novogene UK with Novaseq 6000. Raw data files (fastq files) obtained were decoded using a custom python script and excel. The sequence reads corresponding to each sample was retrieved by searching for the correct index unique to each selection. Then, the code region was extracted from each sequence and assigned to the corresponding identity. The count of each code in each selection sample was obtained by looping through the total reads and counting the occurrence of each code. The enrichment fold of each compound was calculated by first, dividing the count by the total count to get the abundance, second, the abundance after the selection was divided by the abundance of pre-selection to reflect the distribution change of the compound. Next, the enrichment fold was plotted against the count for each member of the library to give the scatter plots as in Fig. 4.

MMP-2 [2] = molecular target: T1, MMP-2; test: MMP-2 inhibition assay (fluorogenic peptide substrate); format: biochemical; conditions: for inhibitory effect: in words
Summary of the method: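 Human proMMP-2 and proMMP-9 were activated with 1 mM APMA (37 °C, 2 h), then used at 6.5 nM (MMP-2) or 10 nM (MMP-9) in Tris/NaCl/CaCl2/Brij 35 buffer, pH 7.5. Enzyme was preincubated with compound 30 min at RT; 25 μM DNP-Pro-Leu-Gly-Met-Trp-Ser-Arg substrate was added and fluorescence (ex 280/em 360 nm) followed 30 min. IC50 from logistic fits of Vmax.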

[3] = read-out: Mean (MMP-2, Supplementary fig 16)
[4] = read-out: Mean (MMP-2 dose-response, Supplementary fig 15)
[5] = read-out: Mean (dose-response, Supplementary fig 17)
[6] = read-out: Normalized activity (Mean)

With `Cn1c(O)nc2cc(C(=O)O)cnc21` [Compound 826] the “MMP2 SL-A Count” value (MMP-2 [1]; NGS sequence count of sub-library SL-A building block, de novo T-DEL selection against MMP-2) was 1212, the “MMP2 SL-C Enrichment Fold” value (MMP-2 [1]) was 2.518 and the “MMP2 SL-C Count” value (MMP-2 [1]) was 5893. For the same compound, the “MMP2 SL-A Enrichment Fold” value (MMP-2 [1]; sub-library SL-A building block, de novo T-DEL selection against MMP-2) was 1.562, the remaining activity at 0.0305176 µM (MMP-2 [2]; Figure 5a, fragment concentration 0.0305176 µM, read-out: Normalized activity (Mean)) was 105% and the remaining activity at 0.12207 µM (MMP-2 [2]; Figure 5a, fragment concentration 0.12207 µM, read-out: Normalized activity (Mean)) was 112%. The remaining activity at 0.488281 µM (MMP-2 [2]; Figure 5a, fragment concentration 0.488281 µM, read-out: Normalized activity (Mean)) was 97.4%, the remaining activity at 1.95312 µM (MMP-2 [2]; Figure 5a, fragment concentration 1.95312 µM, read-out: Normalized activity (Mean)) was 96.2% and the remaining activity at 7.8125 µM (MMP-2 [2]; Figure 5a, fragment concentration 7.8125 µM, read-out: Normalized activity (Mean)) was 103%. For the same compound, the remaining activity at 31.25 µM (MMP-2 [2]; Figure 5a, fragment concentration 31.25 µM, read-out: Normalized activity (Mean)) was 92.9%, the remaining activity at 125 µM (MMP-2 [2]; Figure 5a, fragment concentration 125 µM, read-out: Normalized activity (Mean)) was 97.7% and the remaining activity at 500 µM (MMP-2 [2]; Figure 5a, fragment concentration 500 µM, read-out: Normalized activity (Mean)) was 89.5%. It also gave a remaining activity at 0.12 µM (MMP-2 [2]; MMP-2, concentration 0.12 µM, read-out: Mean (MMP-2, Supplementary fig 16)) of 112%, a remaining activity at 0.49 µM (MMP-2 [2]; MMP-2, concentration 0.49 µM, read-out: Mean (MMP-2, Supplementary fig 16)) of 97.4% and a remaining activity at 1.95 µM (MMP-2 [2]; MMP-2, concentration 1.95 µM, read-out: Mean (MMP-2, Supplementary fig 16)) of 96.2%. The remaining activity at 7.81 µM (MMP-2 [2]; MMP-2, concentration 7.81 µM, read-out: Mean (MMP-2, Supplementary fig 16)) was 103%, the remaining activity at 31.25 µM (MMP-2 [2]; MMP-2, concentration 31.25 µM, read-out: Mean (MMP-2, Supplementary fig 16)) was 92.9% and the remaining activity at 125 µM (MMP-2 [2]; MMP-2, concentration 125.00 µM, read-out: Mean (MMP-2, Supplementary fig 16)) was 97.7%. The remaining activity at 500 µM (MMP-2 [2]; MMP-2, concentration 500.00 µM, read-out: Mean (MMP-2, Supplementary fig 16)) was 89.5%, the remaining activity at 0.12 µM (MMP-2 [2]; MMP-2, concentration 0.12 µM, read-out: Mean (MMP-2 dose-response, Supplementary fig 15)) was 112% and the remaining activity at 0.12 µM (MMP-2 [2]; MMP-2, concentration 0.12 µM, read-out: Mean (dose-response, Supplementary fig 17)) was 112%. The remaining activity at 0.49 µM (MMP-2 [2]; MMP-2, concentration 0.49 µM, read-out: Mean (MMP-2 dose-response, Supplementary fig 15)) was 97.4%, the remaining activity at 0.49 µM (MMP-2 [2]; MMP-2, concentration 0.49 µM, read-out: Mean (dose-response, Supplementary fig 17)) was 97.4% and the remaining activity at 1.95 µM (MMP-2 [2]; MMP-2, concentration 1.95 µM, read-out: Mean (MMP-2 dose-response, Supplementary fig 15)) was 96.2%. It also gave a remaining activity at 1.95 µM (MMP-2 [2]; MMP-2, concentration 1.95 µM, read-out: Mean (dose-response, Supplementary fig 17)) of 96.2%, a remaining activity at 7.81 µM (MMP-2 [2]; MMP-2, concentration 7.81 µM, read-out: Mean (MMP-2 dose-response, Supplementary fig 15)) of 103% and a remaining activity at 7.81 µM (MMP-2 [2]; MMP-2, concentration 7.81 µM, read-out: Mean (dose-response, Supplementary fig 17)) of 103%. It also gave a remaining activity at 31.25 µM (MMP-2 [2]; MMP-2, concentration 31.25 µM, read-out: Mean (MMP-2 dose-response, Supplementary fig 15)) of 92.9%, a remaining activity at 31.25 µM (MMP-2 [2]; MMP-2, concentration 31.25 µM, read-out: Mean (dose-response, Supplementary fig 17)) of 92.9% and a remaining activity at 125 µM (MMP-2 [2]; MMP-2, concentration 125.00 µM, read-out: Mean (MMP-2 dose-response, Supplementary fig 15)) of 97.7%. The remaining activity at 125 µM (MMP-2 [2]; MMP-2, concentration 125.00 µM, read-out: Mean (dose-response, Supplementary fig 17)) was 97.7%, the remaining activity at 500 µM (MMP-2 [2]; MMP-2, concentration 500.00 µM, read-out: Mean (MMP-2 dose-response, Supplementary fig 15)) was 89.5% and the remaining activity at 500 µM (MMP-2 [2]; MMP-2, concentration 500.00 µM, read-out: Mean (dose-response, Supplementary fig 17)) was 89.5%. For the same compound, the inhibitory effect (MMP-2 [2]) was “No inhibitory effects could be measured; also recorded: did not exhibit meaningful activity”.

In the case of `O=C(O)c1cncc(O)c1` [Compound 828], the “MMP2 SL-C Enrichment Fold” value (MMP-2 [1]) is reported as 4.434, the “MMP2 SL-C Count” value (MMP-2 [1]) is reported as 13025 and the inhibitory effect (MMP-2 [2]) is reported as “high µM range”. For the same compound, the IC50 (MMP-2 [2]; mean ± SE, n.d: not detected, Fig. 5d unit inferred, µM, read-out: IC50) was 385 ± 67.3 µM, the remaining activity at 0.0156 µM (MMP-2 [2]; [3]) was 104% and the remaining activity at 0.08 µM (MMP-2 [2]; [3]) was 94%. For the same compound, the remaining activity at 0.39 µM (MMP-2 [2]; [3]) was 105%, the remaining activity at 1.95 µM (MMP-2 [2]; [3]) was 107% and the remaining activity at 9.76 µM (MMP-2 [2]; [3]) was 90.1%. For the same compound, the remaining activity at 48.78 µM (MMP-2 [2]; [3]) was 83.6%, the remaining activity at 243.9 µM (MMP-2 [2]; [3]) was 67.9% and the remaining activity at 1219.51 µM (MMP-2 [2]; [3]) was 0%. The remaining activity at 0.0156 µM (MMP-2 [2]; [4]) was 104%, the remaining activity at 0.08 µM (MMP-2 [2]; [4]) was 94% and the remaining activity at 0.39 µM (MMP-2 [2]; [4]) was 105%. It also gave a remaining activity at 1.95 µM (MMP-2 [2]; [4]) of 107%, a remaining activity at 9.76 µM (MMP-2 [2]; [4]) of 90.1% and a remaining activity at 48.78 µM (MMP-2 [2]; [4]) of 83.6%. It also gave a remaining activity at 243.9 µM (MMP-2 [2]; [4]) of 67.9%, a remaining activity at 1219.51 µM (MMP-2 [2]; [4]) of 0% and a remaining activity at 0.0156 µM (MMP-2 [2]; [5]) of 104%. The remaining activity at 0.08 µM (MMP-2 [2]; [5]) was 94%, the remaining activity at 0.39 µM (MMP-2 [2]; [5]) was 105% and the remaining activity at 1.95 µM (MMP-2 [2]; [5]) was 107%. It also gave a remaining activity at 9.76 µM (MMP-2 [2]; [5]) of 90.1%, a remaining activity at 48.78 µM (MMP-2 [2]; [5]) of 83.6% and a remaining activity at 243.9 µM (MMP-2 [2]; [5]) of 67.9%. It also gave a remaining activity at 1219.51 µM (MMP-2 [2]; [5]) of 0%, a remaining activity at 0.0156098 µM (MMP-2 [2]; [6]) of 104% and a remaining activity at 0.0780488 µM (MMP-2 [2]; [6]) of 94%. It also gave a remaining activity at 0.390244 µM (MMP-2 [2]; [6]) of 105%, a remaining activity at 1.95122 µM (MMP-2 [2]; [6]) of 107% and a remaining activity at 9.7561 µM (MMP-2 [2]; [6]) of 90.1%. The remaining activity at 48.7805 µM (MMP-2 [2]; [6]) was 83.6%, the remaining activity at 243.902 µM (MMP-2 [2]; [6]) was 67.9% and the remaining activity at 1219.51 µM (MMP-2 [2]; [6]) was 0%.
